# Reference: US12493040B2, “Cancer detection method using sense of smell of nematode” (HIROTSU BIO SCIENCE INC., priority 2013, dated 2025)
# Test system: RNAi-treated eri-1 (mg366) nematodes
# Test: RNAi screening of olfactory receptor genes: chemotaxis assay of RNAi-treated nematodes to odorants
# Format: in vivo, Caenorhabditis elegans
# Conditions: low concentration of attractant
# Summary of the method: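 eri-1 (mg366) worms knocked down by feeding RNAi (Ahringer library) on IPTG/ampicillin NGM plates with E. coli for 4 days, then tested for chemotaxis, 30–50 worms per assay. Odorants at 1 μl of 10^−3 or 10^−4 dilution, or 1 and 5 μl undiluted. Hits scored by z score, thresholds ±1.96 (P<0.05) or ±0.96.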
smiles,measurement,setting,value
Cc1nc(C)c(C)s1 [trimethylthiazole],chemotaxis index,Control nematodes,0.64 ± 0.015
same,chemotaxis index,srh-10 RNAi-treated nematodes,0.88
same,chemotaxis index,srh-11 RNAi-treated nematodes,0.85
same,chemotaxis index,srh-15 RNAi-treated nematodes,0.91
same,chemotaxis index,srh-16 RNAi-treated nematodes,0.49
same,chemotaxis index,srh-18 RNAi-treated nematodes,0.91
same,chemotaxis index,srh-19 RNAi-treated nematodes,0.88
same,chemotaxis index,srh-22 RNAi-treated nematodes,0.75
same,chemotaxis index,srh-23 RNAi-treated nematodes,0.78
same,chemotaxis index,srh-24 RNAi-treated nematodes,0.92
same,chemotaxis index,srh-25 RNAi-treated nematodes,0.95
same,chemotaxis index,srh-27 RNAi-treated nematodes,0.71
same,chemotaxis index,srh-28 RNAi-treated nematodes,0.92
same,chemotaxis index,srh-36 RNAi-treated nematodes,0.51
same,chemotaxis index,srh-37 RNAi-treated nematodes,0.87
same,chemotaxis index,srh-39 RNAi-treated nematodes,0.45
same,chemotaxis index,srh-40 RNAi-treated nematodes,0.73
same,chemotaxis index,srh-41 RNAi-treated nematodes,0.85
same,chemotaxis index,srh-44 RNAi-treated nematodes,0.90
same,chemotaxis index,srh-45 RNAi-treated nematodes,0.73
same,chemotaxis index,srh-46 RNAi-treated nematodes,0.83
same,chemotaxis index,srh-48 RNAi-treated nematodes,0.65
same,chemotaxis index,srh-49 RNAi-treated nematodes,0.59
same,chemotaxis index,srh-50 RNAi-treated nematodes,0.84
same,chemotaxis index,srh-51 RNAi-treated nematodes,0.64
same,chemotaxis index,srh-52 RNAi-treated nematodes,0.55
same,chemotaxis index,srh-55 RNAi-treated nematodes,0.56
same,chemotaxis index,srh-59 RNAi-treated nematodes,0.37
same,chemotaxis index,srh-60 RNAi-treated nematodes,0.79
same,chemotaxis index,srh-61 RNAi-treated nematodes,0.70
same,chemotaxis index,srh-67 RNAi-treated nematodes,0.63
same,chemotaxis index,srh-68 RNAi-treated nematodes,0.57
same,chemotaxis index,srh-69 RNAi-treated nematodes,0.75
same,chemotaxis index,srh-70 RNAi-treated nematodes,0.78
same,chemotaxis index,srh-71 RNAi-treated nematodes,0.85
same,chemotaxis index,srh-72 RNAi-treated nematodes,0.58
same,chemotaxis index,srh-74 RNAi-treated nematodes,0.44
same,chemotaxis index,srh-75 RNAi-treated nematodes,0.54
same,chemotaxis index,srh-77 RNAi-treated nematodes,0.52
same,chemotaxis index,srh-79 RNAi-treated nematodes,0.42
same,chemotaxis index,srh-80 RNAi-treated nematodes,0.39
same,chemotaxis index,srh-82 RNAi-treated nematodes,0.71
same,chemotaxis index,srh-83 RNAi-treated nematodes,0.86
same,chemotaxis index,srh-97 RNAi-treated nematodes,0.77
same,chemotaxis index,srh-99 RNAi-treated nematodes,0.65
same,chemotaxis index,srh-100 RNAi-treated nematodes,0.62
same,chemotaxis index,srh-104 RNAi-treated nematodes,0.65
same,chemotaxis index,srh-105 RNAi-treated nematodes,0.66
same,chemotaxis index,srh-109 RNAi-treated nematodes,0.76
same,chemotaxis index,srh-111 RNAi-treated nematodes,0.37
same,chemotaxis index,srh-113 RNAi-treated nematodes,0.83
same,chemotaxis index,srh-115 RNAi-treated nematodes,0.47
same,chemotaxis index,srh-116 RNAi-treated nematodes,0.56
same,chemotaxis index,srh-118 RNAi-treated nematodes,0.73
same,chemotaxis index,srh-119 RNAi-treated nematodes,0.71
same,chemotaxis index,srh-120 RNAi-treated nematodes,0.72
same,chemotaxis index,srh-122 RNAi-treated nematodes,0.44
same,chemotaxis index,srh-123 RNAi-treated nematodes,0.56
same,chemotaxis index,srh-125 RNAi-treated nematodes,0.70
same,chemotaxis index,srh-128 RNAi-treated nematodes,0.62
same,chemotaxis index,srh-129 RNAi-treated nematodes,0.69
same,chemotaxis index,srh-130 RNAi-treated nematodes,0.70
same,chemotaxis index,srh-214 RNAi-treated nematodes,0.78
same,chemotaxis index,srh-216 RNAi-treated nematodes,0.73
same,chemotaxis index,srh-217 RNAi-treated nematodes,0.60
same,chemotaxis index,srh-220 RNAi-treated nematodes,0.52
same,chemotaxis index,srh-222 RNAi-treated nematodes,0.58
same,chemotaxis index,srh-223 RNAi-treated nematodes,0.76
same,chemotaxis index,srh-227 RNAi-treated nematodes,0.76
same,chemotaxis index,srh-229 RNAi-treated nematodes,0.69
same,chemotaxis index,srh-233 RNAi-treated nematodes,0.38
same,chemotaxis index,srh-235 RNAi-treated nematodes,0.58
same,chemotaxis index,srh-236 RNAi-treated nematodes,0.64
same,chemotaxis index,srh-239 RNAi-treated nematodes,0.84
same,chemotaxis index,srh-241 RNAi-treated nematodes,0.85
same,chemotaxis index,srh-243 RNAi-treated nematodes,0.63
same,chemotaxis index,srh-244 RNAi-treated nematodes,0.76
same,chemotaxis index,srh-247 RNAi-treated nematodes,0.54
same,chemotaxis index,srh-250 RNAi-treated nematodes,0.58
same,chemotaxis index,srh-251 RNAi-treated nematodes,0.64
same,chemotaxis index,srh-252 RNAi-treated nematodes,0.64
same,chemotaxis index,srh-258 RNAi-treated nematodes,0.75
same,chemotaxis index,srh-261 RNAi-treated nematodes,0.72
same,chemotaxis index,srh-264 RNAi-treated nematodes,0.74
same,chemotaxis index,srh-266 RNAi-treated nematodes,0.25
same,chemotaxis index,srh-274 RNAi-treated nematodes,0.60
same,chemotaxis index,srh-275 RNAi-treated nematodes,0.53
same,chemotaxis index,srh-276 RNAi-treated nematodes,0.59
same,chemotaxis index,srh-277 RNAi-treated nematodes,0.65
same,chemotaxis index,srh-279 RNAi-treated nematodes,0.61
same,chemotaxis index,srh-281 RNAi-treated nematodes,0.55
same,chemotaxis index,srh-282 RNAi-treated nematodes,0.79
same,chemotaxis index,srh-283 RNAi-treated nematodes,0.56
same,chemotaxis index,srh-284 RNAi-treated nematodes,0.59
same,chemotaxis index,srh-291 RNAi-treated nematodes,0.91
same,chemotaxis index,srh-292 RNAi-treated nematodes,0.78
same,chemotaxis index,srh-293 RNAi-treated nematodes,0.82
same,chemotaxis index,srh-297 RNAi-treated nematodes,0.56
same,chemotaxis index,srh-298 RNAi-treated nematodes,0.82
same,chemotaxis index,srh-308 RNAi-treated nematodes,0.30
